Test results from patent publication US9340520B2, “Hepatitis C virus inhibitors” (Bristol-Myers Squibb Company, priority 2011, dated 2016).

Assays:
[1] = IV and PO single dose pharmacokinetic studies in rat; format: in vivo; conditions: male Sprague-Dawley rats, plasma; for AUC: oral gavage 5 mg/kg, 24 h, read-out: 24 h rat PK (Auc); for bioavailability: oral gavage 5 mg/kg vs IV infusion 2 mg/kg, read-out: 24 h rat PK (oral bioavailability)
Method: The pharmacokinetics of Examples 1 to 6 and Compound-A (WO2008/021927) were characterized in male Sprague-Dawley rats (260-310 g) (see Table 2). In these studies, two groups of animals (N=3 per group) received compound either as an intravenous (IV) infusion (2 mg/kg over 10 minutes) via the jugular vein or by oral gavage (5 mg/kg) in a vehicle of 100% PEG 400 or 90:5:5 PEG 400:ethanol:TPGS, respectively. The rats in the oral dosing group were fasted overnight. Serial blood samples were obtained at 0.17 (IV only), 0.25, 0.5, 0.75, 1, 2, 4, 6, 8, and 24 h post dose. Blood samples (˜0.3 mL) were collected from the jugular vein into K3EDTA-containing tubes and then centrifuged at 4° C. (1500-2000×g) to obtain plasma. Plasma samples were stored at −20° C. until analysis by LC/MS/MS.
A bioanalytical method utilizing liquid chromatography separation followed by tandem mass spectrometry detection (LC/MS/MS) was developed for the compound analysis in rat plasma. Detection was performed using selected reaction monitoring. Ions representing the precursor (M+H)^+ species were selected in quadrupole 1 and collisionally dissociated with N2 to generate specific product ions, which were subsequently monitored by quadrupole 3. Standard curves were prepared in male rat plasma and processed in the same manner as test samples to generate quantitative data.
Pharmacokinetic parameter values were calculated using noncompartmental methods by Kinetica. Values below the lower limit of quantification (LLOQ) were not used in calculations. Area under the curve (AUC) was calculated using the linear trapezoidal rule.

[2] = system: HCV genotype 1b wild type; assay: HCV replicon assay, genotype 1b wild type; format: cell-based; conditions: Hepatitis C virus, HCV replicon cells, read-out: EC50 G 1b wild type
Method: (§1) An HCV Replicon assay was utilized in the present disclosure, and was prepared, conducted and validated as described in commonly owned PCT/US2006/022197 and in O'Boyle et. al. Antimicrob Agents Chemother. 2005 April; 49(4):1346-53. Recommended assay methods incorporating luciferase reporters have also been used as described from commercial sources (Apath.com).
(§2) HCV-neo replicon cells and replicon cells containing resistance substitutions in the NS5A region were used to test the currently described family of compounds. The compounds were determined to have differing degrees of reduced inhibitory activity on cells containing mutations vs. the corresponding inhibitory potency against wild-type cells. Thus, the compounds of the present disclosure can be effective in inhibiting the function of the HCV NS5A protein and are understood to be as effective in combinations as previously described in application PCT/US2006/022197 and commonly owned WO/04014852. It should be understood that the compounds of the present disclosure can inhibit multiple genotypes of HCV.

[3] = system: HCV genotype 1b LV/YH double resistant mutant; assay: HCV replicon assay, genotype 1b LV/YH double resistant mutant; format: cell-based; conditions: Hepatitis C virus, read-out: EC50 G 1b LV/YH
Method: as §1, §2

HCV genotype 1a = assay: HCV replicon assay, genotype 1a; format: cell-based; conditions: Hepatitis C virus; HCV replicon cells, genotype 1a wild type; read-out: EC50 G 1a wild type
Method: as §1, §2

[4] = system: genotype-1a YH single resistant mutant; assay: HCV replicon assay, genotype-1a YH single resistant mutant; format: cell-based; conditions: Hepatitis C virus, read-out: EC50 G 1a YH
Method: as §1, §2

[5] = Cytotoxicity (CC50) in G 1a replicon cells; format: cell-based; conditions: HCV G 1a replicon cells
Method: as §1

Compound | AUC [1] | bioavailability [1] | EC50 [2] | EC50 [3] | EC50 (HCV genotype 1a) | EC50 [4] | CC50 [5]
COC(=O)N[C@H](C(=O)N1[C@H](c2nc(-c3ccc(-c4ccc(-c5c[nH]c([C@@H]6C[C@@]7(C)C[C@H]7N6C(=O)[C@@H](NC(=O)OC)C6C[C@@H](C)O[C@H](C)C6)n5)cc4)cc3)c[nH]2)C[C@@]2(C)C[C@@H]12)C1C[C@@H](C)O[C@H](C)C1 (stereo partly shown) [Example-5] | 0.539 µM·h | 6.3% | 0.00685 nM | 0.00985 nM | 0.00372 nM | 0.0607 nM | 5340 nM
COC(=O)N[C@H](C(=O)N1[C@@H](C)CC[C@H]1c1nc(-c2ccc(-c3ccc(-c4c[nH]c([C@@H]5CC[C@H](C)N5C(=O)[C@@H](NC(=O)OC)C5C[C@@H](C)O[C@H](C)C5)n4)c(F)c3)cc2)c[nH]1)C1C[C@@H](C)O[C@H](C)C1 (stereo partly shown) [Example-4] | 1.73 µM·h | 16% | 0.00415 nM | 0.436 nM | 0.00595 nM | 0.402 nM | 7750 nM
COC(=O)N[C@H](C(=O)N1CCC[C@H]1c1nc(-c2ccc(-c3ccc(-c4c[nH]c([C@@H]5CCCN5C(=O)[C@@H](NC(=O)OC)C5C[C@@H](C)O[C@H](C)C5)n4)cc3)cc2)c[nH]1)C1C[C@@H](C)O[C@H](C)C1 (stereo partly shown) [Example-6] | 1.36 µM·h | 5% | 0.0367 nM | 0.659 nM | 0.0162 nM | 0.383 nM | 15400 nM
COC(=O)N[C@H](C(=O)N1[C@@H](C)CC[C@H]1c1nc(-c2ccc(-c3ccc(-c4c[nH]c([C@@H]5CC[C@H](C)N5C(=O)[C@@H](NC(=O)OC)C5C[C@@H](C)O[C@H](C)C5)n4)cc3)cc2)c[nH]1)C1C[C@@H](C)O[C@H](C)C1 (stereo partly drawn) [Example-2, Dimethyl(4,4′-biphenyldiylbis(1H-imidazole-4,2-diyl((2S,5S)-5-methyl-2,1-pyrrolidinediyl)((1S)-1-((2R,6R)-2,6-dimethyltetrahydro-2H-pyran-4-yl)-2-oxo-2,1-ethanediyl)))biscarbamate] | 2.22 µM·h | 12% | 0.00803 nM | 0.115 nM | 0.00643 nM | 0.158 nM | 5890 nM
COC(=O)N[C@H](C(=O)N1[C@@H](C)CC[C@H]1c1nc(-c2ccc(-c3ccc(-c4c[nH]c([C@@H]5CC[C@H](C)N5C(=O)[C@@H](NC(=O)OC)[C@H]5C[C@@H](C)O[C@@H](C)C5)n4)cc3)cc2)c[nH]1)[C@@H]1C[C@@H](C)O[C@@H](C)C1 [Example-1] | 1.6 µM·h | 15% | 0.00396 nM | 3.19 nM | 0.00548 nM | 0.977 nM | 8460 nM
COC(=O)N[C@H](C(=O)N1CCC[C@H]1c1nc(-c2ccc(-c3ccc(-c4c[nH]c([C@@H]5CCCN5C(=O)[C@@H](NC(=O)OC)C5CCOCC5)n4)cc3)cc2)c[nH]1)C1CCOCC1 [Compound-A, reference compound] | 0.103 µM·h | 1.3% | 0.119 nM | 20 nM | 0.0511 nM | 13 nM | 63900 nM
COC(=O)N[C@H](C(=O)N1[C@@H](C)CC[C@H]1c1nc(-c2ccc(-c3ccc(-c4c[nH]c([C@@H]5CC[C@H](C)N5C(=O)[C@@H](NC(=O)OC)C5C[C@@H](C)O[C@H](C)C5)n4)c(C)c3)cc2)c[nH]1)C1C[C@@H](C)O[C@H](C)C1 (stereo partly shown) [Example-3] | 4.49 µM·h | 17% | 0.00641 nM | 0.191 nM | 0.0052 nM | 1.08 nM | 6150 nM
